Assay results reported in PubChem BioAssay (NCI).
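96-well plates; 48 h exposure; 5 concentrations. Endpoints by linear interpolation between flanking doses. Not reached: highest tested concentration assigned. GI50: concentration for 50% inhibition of growth. TGI: concentration producing complete growth inhibition.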

Key:
Assay in all cases: NCI-60 cell line screen, 48 h
SK-OV-3 ovarian = tested on: SK-OV-3 ovarian
SNB-19 CNS = tested on: SNB-19 CNS
RPMI-8226 leukemia = tested on: RPMI-8226 leukemia
HL-60(TB) leukemia = tested on: HL-60(TB) leukemia
SNB-75 CNS = tested on: SNB-75 CNS
EKVX NSCLC = tested on: EKVX NSCLC
ACHN renal = tested on: ACHN renal
HOP-92 NSCLC = tested on: HOP-92 NSCLC
M14 melanoma = tested on: M14 melanoma
A498 renal = tested on: A498 renal

Row | SMILES | TGI (SK-OV-3 ovarian) [µM] | TGI (SNB-19 CNS) [µM] | TGI (RPMI-8226 leukemia) [µM] | TGI (HL-60(TB) leukemia) [µM] | TGI (SNB-75 CNS) [µM] | TGI (EKVX NSCLC) [µM] | TGI (ACHN renal) [µM] | TGI (HOP-92 NSCLC) [µM] | TGI (M14 melanoma) [µM] | GI50 (SK-OV-3 ovarian) [µM] | GI50 (SNB-19 CNS) [µM] | GI50 (A498 renal) [µM] | TGI (A498 renal) [µM] | GI50 (RPMI-8226 leukemia) [µM] | GI50 (HL-60(TB) leukemia) [µM] | GI50 (SNB-75 CNS) [µM] | GI50 (ACHN renal) [µM] | GI50 (HOP-92 NSCLC) [µM] | GI50 (M14 melanoma) [µM] | GI50 (EKVX NSCLC) [µM]
1 | COc1c(O)c(OC)c(C(=O)/C=C/c2ccccc2)c(O)c1OC | > 100 | > 100 | > 100 | > 100 | > 100 | > 100 | 58.1 | 81 | > 100 | – | – | – | – | – | – | – | – | – | – | –
2 | COc1ccccc1C(=O)c1cnc(NC2CCN(S(C)(=O)=O)CC2)nc1N | > 25 | > 25 | > 25 | 14.3 | > 25 | – | > 25 | > 22.9 | > 25 | > 25 | 4.71 | 6 | 22 | 6.57 | 3.96 | 7.57 | 4.68 | 6.14 | 10.2 | –
3 | COC(=O)/C(C#N)=C1\N=NNN1CCCN1CCOCC1 | > 100 | > 100 | > 100 | – | > 100 | > 100 | > 100 | > 100 | > 100 | – | – | – | > 100 | – | – | – | – | – | – | –
4 | Cc1nnc([S-])s1.[Au+].c1ccc([PH+](c2ccccc2)c2ccccc2)cc1 | – | 2.98 | 5.31 | 5.51 | 2.87 | – | 3.26 | 3.24 | 3.56 | – | 1.6 | – | – | 1.8 | 1.85 | 1.53 | 1.86 | 1.82 | 1.62 | –
5 | O=C1OCC(C(=O)c2cccc(O)c2)C1=O (stereo not given) | > 100 | > 100 | > 100 | – | > 100 | > 100 | > 100 | > 100 | > 100 | – | – | – | > 100 | – | – | – | – | – | – | –
6 | CC1(C)N=C(N)N=C(N)N1c1ccc(OCC(=O)Nc2cccc(S(=O)(=O)F)c2)c(Cl)c1 | > 100 | > 100 | > 100 | > 100 | > 100 | – | > 100 | > 100 | > 100 | – | – | – | – | – | – | – | – | – | – | –
7 | COC(=O)c1c(C)oc2ccc(OC(C)=O)cc12 | > 100 | > 100 | > 100 | > 100 | > 100 | > 100 | > 100 | – | > 100 | – | – | – | > 100 | – | – | – | – | – | – | –
8 | COc1ccc(C2=CC(c3cc(OC)c(OC)c(OC)c3)n3ncnc3N2)cc1 (stereo not given) | 27 | > 100 | 81.3 | 0.0612 | – | > 100 | 43.9 | 37.3 | > 100 | 0.0513 | 0.0672 | 0.0426 | 25.1 | 0.0439 | 0.0252 | – | 0.152 | 11.3 | 0.0333 | 0.0788
9 | CC(CC(=O)O)(CC(=O)O)C(=O)O | > 100 | > 100 | > 100 | – | > 100 | > 100 | > 100 | > 100 | > 100 | – | – | – | > 100 | – | – | – | – | – | – | –
10 | O=C(OCc1ccccc1CN1CCOCC1)c1ccc(Br)cc1 | > 100 | > 100 | 49.7 | – | > 100 | > 100 | > 100 | > 100 | > 100 | – | – | – | > 100 | – | – | – | – | – | – | –
11 | CCCCCCCCCCCCCCCC[N+]1(CC)CCCC1 | 3.05 | – | – | 1.14 | 1.11 | – | 4.43 | 1.33 | 1.72 | 1.02 | – | 0.397 | 2.94 | – | 0.339 | 0.247 | 1.33 | 0.227 | 0.474 | –
12 | CN1CC2(CCCCC2)C(O)C12C=CCCC2 (stereo not given) | > 100 | > 100 | > 100 | > 100 | > 100 | > 100 | – | – | > 100 | – | – | – | > 100 | – | – | – | – | – | – | –
13 | Cc1cc(N(CCC#N)S(=O)(=O)c2ccccc2)ccc1C=O | > 100 | > 100 | > 100 | > 100 | > 100 | > 100 | > 100 | – | > 100 | – | – | – | > 100 | – | – | – | – | – | – | –
14 | COC(=O)C(CC=O)C(=O)C(=O)Nc1cccc(C(F)(F)F)c1 (stereo not given) | > 100 | > 100 | > 100 | > 100 | – | > 100 | > 100 | > 100 | > 100 | – | – | – | – | – | – | – | – | – | – | –
15 | O=c1oc(-c2ccc(O)c(O)c2)cc2cc(O)cc(O)c12 | > 100 | > 100 | > 100 | – | – | 91.3 | > 100 | > 100 | 93.9 | > 100 | 56.3 | 27.3 | 56.7 | 20.8 | – | – | 45.3 | 25.5 | 33.2 | 28.4
16 | Cc1ccc(C2=Nc3c(N)ncnc3NC(c3cccc(Nc4ccnc5cc(C(F)(F)F)ccc45)c3)C2)cc1 (stereo not given) | 51 | > 100 | 6.05 | 74.7 | – | > 100 | > 100 | 9.75 | 5.29 | 5.93 | 6.71 | 1.76 | 6.81 | 2.17 | 2.95 | – | 4.69 | 2.54 | 2.11 | 3.95
17 | c1ccc2c(c1)CCCc1cc3ccccc3nc1-2 | > 100 | > 100 | 99.2 | – | > 100 | > 100 | > 100 | – | > 100 | – | – | – | > 100 | – | – | – | – | – | – | –
18 | CC1OC(=O)N(CCCC=C2SCCCS2)C1=O (stereo not given) | > 100 | > 100 | > 100 | – | > 100 | > 100 | > 100 | > 100 | > 100 | – | – | – | > 100 | – | – | – | – | – | – | –
19 | CCOC(=O)c1cnc2[nH]c(=O)c3ccccc3n2c1=O | > 100 | > 100 | > 100 | > 100 | > 100 | > 100 | > 100 | > 100 | > 100 | – | – | – | – | – | – | – | – | – | – | –
20 | O=C(CCCCCCCCCCc1ccccc1)c1c(O)cccc1O | > 100 | 41.3 | > 100 | 71.6 | 63.8 | 48.7 | 69.9 | 41.8 | 35.6 | – | – | – | – | – | – | – | – | – | – | –
